Source: patent US10065965B2, “Imidazo[1,2-B][1,2,4]triazine derivatives as antiparasitic agents” (GlaxoSmithKline Intellectual Property Development Limited, priority 2015, dated 2018)
≈ marks a conversion by molar mass, not a printed value.

Columns and labels:
[1] = Assay 4 solubility assay, ChemiLuminescent Nitrogen Detection (CLND); format: physicochemical; conditions: phosphate buffered saline, pH 7.4, aqueous buffer, kinetic from dmso stock, pH 7.4 PBS, from 10 mM DMSO stock, 1 h at room temperature
Method in brief: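 Kinetic solubility: 10 mM DMSO stock diluted 5 µl into 100 µl pH 7.4 PBS, incubated 1 h at room temperature, then filtered. Filtrate quantified by HPLC with chemiluminescent nitrogen detection against ondansetron and caffeine standards; solubility in µM by linear-regression calibration.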

[2] = Assay 1 intramacrophage Leishmania donovani assay, THP-1 cell count (cytotoxicity readout); format: cell-based; conditions: human, minimum threshold 4.3, read-out: cytotoxicity against THP-1 cells, pEC50 value (converted)
Method: The intramacrophage Leishmania assay was performed using a modified version of the method described in De Rycker et al. (Antimicrob Agents Chemother. 2013 July; 57(7):2913-22. Comparison of a high-throughput high-content intracellular Leishmania donovani assay with an axenic amastigote assay. De Rycker M, Hallyburton I, Thomas J, Campbell L, Wyllie S, Joshi D, Cameron S, Gilbert I H, Wyatt P G, Frearson J A, Fairlamb A H, Gray D W.). Procedure: 350 nl of compound was pre-dispensed into 384 well sterile intermediary plates. For single point screening, amphotericin B was added to all wells of column 24 as a positive control (final concentration 2 μM) and DMSO to column 23. For potency determinations, ten-point, one in three dilution curves were created with the highest concentration being 50 μM and on each plate a control curve of amphotericin B was included. Controls were as follows: columns 11 and 12: DMSO, columns 23 and 24: amphotericin B (final concentration 2 μM). To the intermediary plates, 35 μl of THP-1 media was added and plates were shaken for >5 min to ensure complete mixing. THP-1 cells (8,000 per well, 50 μl) were plated into black clear-bottom 384 well plates (Corning) in presence of 20 nM PMA. After 20 min at RT, the plates were incubated at 37° C. under 5% CO2 in a humidified incubator for 75 h. The cells were then washed with […] sterile phosphate buffered saline (PBS) supplemented with 1 mM CaCl2, 0.5 mM MgCl2, 0.1% (w/v) bovine serum albumin (PBS-A) and amastigotes were added to all wells at a multiplicity of infection of 5 (40,000 amastigotes per well). After 40 min at RT, plates were returned to the incubator. Amastigotes were incubated in the presence of THP-1 macrophages for 16 h. Any remaining extracellular amastigotes were subsequently removed with an overflow wash of 1 mL PBS-A per well (wash buffer is being aspirated from the top of the well as it is being dispensed) followed by addition of 25 μl of the compound pre-dilutions using a Fluidx Ipette-pro pipetting station. The final dilution of each compound was 200-fold. Plates were incubated for 96 h and then washed (250 μl PBS-A) and fixed (4% (v/v) formaldehyde-PBS, 30 min, RT). After fixation, the wells were washed with 250 μl PBS, stained (10 μg/mL DAPI, 0.4 μg mL-1 HCS Cellmask Deep Red in PBS+0.1% (v/v) Triton X-100, 30 min, RT) and washed with 250 μl PBS. Finally, PBS+0.05% (v/v) thimerosal was added to the wells, the plates were sealed and imaged on a high-content microscope (GE IN Cell 2000) using a 10× objective. Image analysis was carried out with GE IN Cell Analyzer 1000 Workstation using the “Multi Target Analysis” module. Settings for segmentation were as follows: nuclei: minimum area: 142.384 μm2, sensitivity: 81, method: top-hat; cells: characteristic area: 2500 μm2, sensitivity: 60, method: multiscale top-hat; organelles (amastigotes): granule size 1-3, 3 scales, sensitivity: 90, detection in entire cell. For each well, i) THP-1 cell count (cytotoxicity readout) and ii) average number of amastigotes per cell (potency readout) were calculated, both in terms of pEC50 values.

[3] = Assay 6 Trypanosoma cruzi intracellular assay, cytotoxicity against H9c2 cells; format: cell-based; conditions: rat, H9C2 cardiomyocytes infected with T. cruzi trypomastigotes, total number of H9C2 cells, minimum threshold 4.3, read-out: cytotoxicity against H9c2 cells, pEC50 (converted)
Method: Compounds were dispensed into black 384-well assay plates (Greiner) by acoustic dispensing (LabCyte ECHO). For potency determinations, eleven-point, one in three dilution curves were generated, with a top concentration of 50 μM. H9C2 rat cardiomyocytes cells were dispensed in T225 tissue culture flasks and after 4 hours they were infected during 18 hours with T. cruzi trypomastigotes in the same T225 tissue culture flasks at a multiplicity of infection of 1. Next, any remaining free trypomastigotes were washed away with PBS and the infected H9C2 cells were harvested by trypsinisation. The infected H9C2 cells were then plated into 384-well plates containing the compounds to be tested, at 2500 cells per well in DMEM media with 2% FBS, 1% Penicillin/Streptomocin, 2 mM L-Glutamine, 1 mM Na Pyruvate and 25 mM HEPES. After 72 h incubation at 37° C. in presence of 5% CO2, the plates were fixed and stained with 4% formaldehyde and 2 μM Draq5 for 3 hours at room temperature. The plates were imaged on a Perkin Elmer Opera high-content imaging system using a 20× air objective. Images were analysed using the Acapella building blocks system (Perkin Elmer). The image analysis algorithm first identified the H9C2 nuclei followed by demarcation of the cytoplasm and identification of intracellular amastigotes. This algorithm reported mean number of parasites per H9C2 cell, the percentage of infected H9C2 cells and the total number of H9C2 cells.

## O=C(Nc1ccc(F)c(-c2cn3nc(N4CCOCC4)cnc3n2)c1)N1CCCC1 [Example 1, N-(4-fluoro-3-(2-morpholinoimidazo[1,2-b][1,2,4]triazin-6-yl)phenyl)pyrrolidine-1-carboxamide]
[1]
  solubility at 1 h: 100 to 416 µM (≈ 41.1 to 171 µg/mL)
[2]
  EC50 at 96 h: > 50.1 µM
[3]
  EC50 at 72 h: > 50.1 µM
